Source: US20260130395A1, “Water Dispersible Botanical Compositions” (Aquila Black Limited, priority 2021, published 2026)

Assay: Stability of cannabinoid entourage and Vitamin E components of the powder concentrate by LCMSMS
Type: physicochemical
Settings: powder stored at 21-25° C.
Protocol: At each time period, 0.05 g of powder was dissolved in 10 ml-15 of ethanol, diluted to fall within the analytical range, and injected into the LCMSMS for analysis.

Compound | Stability of Plant-Derived Cannabinoid Compounds in Powder Concentrate (0 days) | Stability of Plant-Derived Cannabinoid Compounds in Powder Concentrate (1 days) | Stability of Plant-Derived Cannabinoid Compounds in Powder Concentrate (2 days) | Stability of Plant-Derived Cannabinoid Compounds in Powder Concentrate (3 days) | Stability of Plant-Derived Cannabinoid Compounds in Powder Concentrate (5 days) | Stability of Plant-Derived Cannabinoid Compounds in Powder Concentrate (8 days) | Stability of Plant-Derived Cannabinoid Compounds in Powder Concentrate (9 days) | Stability of Plant-Derived Cannabinoid Compounds in Powder Concentrate (10 days) | Stability of Plant-Derived Cannabinoid Compounds in Powder Concentrate (11 days) | Stability of Plant-Derived Cannabinoid Compounds in Powder Concentrate (12 days) | Stability of Plant-Derived Cannabinoid Compounds in Powder Concentrate (15 days) | Stability of Plant-Derived Cannabinoid Compounds in Powder Concentrate (16 days) | Stability of Plant-Derived Cannabinoid Compounds in Powder Concentrate (17 days) | Stability of Plant-Derived Cannabinoid Compounds in Powder Concentrate (18 days) | Stability of Plant-Derived Cannabinoid Compounds in Powder Concentrate (19 days) | Stability of Plant-Derived Cannabinoid Compounds in Powder Concentrate (22 days) | Stability of Plant-Derived Cannabinoid Compounds in Powder Concentrate (23 days) | Stability of Plant-Derived Cannabinoid Compounds in Powder Concentrate (24 days) | Stability of Plant-Derived Cannabinoid Compounds in Powder Concentrate (25 days) | Stability of Plant-Derived Cannabinoid Compounds in Powder Concentrate (26 days) | other results
CCCCCc1cc(O)c2c(c1)OC(C)(C)c1ccc(C)cc1-2 [CBN, cannabinol] | 0.480 mg/g powder | 0.471 mg/g powder | 0.488 mg/g powder | 0.474 mg/g powder | 0.491 mg/g powder | 0.469 mg/g powder | 0.466 mg/g powder | 0.499 mg/g powder | 0.494 mg/g powder | 0.496 mg/g powder | 0.472 mg/g powder | 0.483 mg/g powder | 0.465 mg/g powder | 0.470 mg/g powder | 0.490 mg/g powder | 0.486 mg/g powder | 0.469 mg/g powder | 0.465 mg/g powder | 0.486 mg/g powder | 0.486 mg/g powder | Stability of Plant-Derived Cannabinoid Compounds in Powder Concentrate (29 days): 0.484 mg/g powder; Stability of Plant-Derived Cannabinoid Compounds in Powder Concentrate (30 days): 0.476 mg/g powder; Stability of Plant-Derived Cannabinoid Compounds in Powder Concentrate (60 days): 0.489 mg/g powder; Stability of Plant-Derived Cannabinoid Compounds in Powder Concentrate (90 days): 0.483 mg/g powder; Stability of Plant-Derived Cannabinoid Compounds in Powder Concentrate (120 days): 0.498 mg/g powder; Stability of Plant-Derived Cannabinoid Compounds in Powder Concentrate (150 days): 0.500 mg/g powder; Stability of Plant-Derived Cannabinoid Compounds in Powder Concentrate (180 days): 0.464 mg/g powder; Stability of Plant-Derived Cannabinoid Compounds in Powder Concentrate (210 days): 0.501 mg/g powder; Stability of Plant-Derived Cannabinoid Compounds in Powder Concentrate (240 days): 0.467 mg/g powder; Stability of Plant-Derived Cannabinoid Compounds in Powder Concentrate (270 days): 0.464 mg/g powder; Stability of Plant-Derived Cannabinoid Compounds in Powder Concentrate (300 days): 0.469 mg/g powder; Stability of Plant-Derived Cannabinoid Compounds in Powder Concentrate (330 days): 0.502 mg/g powder; Stability of Plant-Derived Cannabinoid Compounds in Powder Concentrate (360 days): 0.499 mg/g powder; Stability of Plant-Derived Cannabinoid Compounds in Powder Concentrate (390 days): 0.479 mg/g powder; Stability of Plant-Derived Cannabinoid Compounds in Powder Concentrate (420 days): 0.481 mg/g powder; Stability of Plant-Derived Cannabinoid Compounds in Powder Concentrate (450 days): 0.480 mg/g powder; Stability of Plant-Derived Cannabinoid Compounds in Powder Concentrate (480 days): 0.485 mg/g powder; Stability of Plant-Derived Cannabinoid Compounds in Powder Concentrate (510 days): 0.499 mg/g powder; Stability of Plant-Derived Cannabinoid Compounds in Powder Concentrate (540 days): 0.492 mg/g powder; Stability of Plant-Derived Cannabinoid Compounds in Powder Concentrate (570 days): 0.471 mg/g powder
CCCCCc1cc(O)c2c(c1)OC(C)(CCC=C(C)C)C=C2 (centres unmarked) [CBC, cannabichromene] | 0.070 mg/g powder | 0.072 mg/g powder | 0.071 mg/g powder | 0.073 mg/g powder | 0.070 mg/g powder | 0.071 mg/g powder | 0.068 mg/g powder | 0.071 mg/g powder | 0.071 mg/g powder | 0.069 mg/g powder | 0.073 mg/g powder | 0.073 mg/g powder | 0.070 mg/g powder | 0.072 mg/g powder | 0.070 mg/g powder | 0.071 mg/g powder | 0.069 mg/g powder | 0.068 mg/g powder | 0.072 mg/g powder | 0.071 mg/g powder | Stability of Plant-Derived Cannabinoid Compounds in Powder Concentrate (29 days): 0.069 mg/g powder; Stability of Plant-Derived Cannabinoid Compounds in Powder Concentrate (30 days): 0.072 mg/g powder; Stability of Plant-Derived Cannabinoid Compounds in Powder Concentrate (60 days): 0.068 mg/g powder; Stability of Plant-Derived Cannabinoid Compounds in Powder Concentrate (90 days): 0.068 mg/g powder; Stability of Plant-Derived Cannabinoid Compounds in Powder Concentrate (120 days): 0.072 mg/g powder; Stability of Plant-Derived Cannabinoid Compounds in Powder Concentrate (150 days): 0.072 mg/g powder; Stability of Plant-Derived Cannabinoid Compounds in Powder Concentrate (180 days): 0.071 mg/g powder; Stability of Plant-Derived Cannabinoid Compounds in Powder Concentrate (210 days): 0.072 mg/g powder; Stability of Plant-Derived Cannabinoid Compounds in Powder Concentrate (240 days): 0.068 mg/g powder; Stability of Plant-Derived Cannabinoid Compounds in Powder Concentrate (270 days): 0.072 mg/g powder; Stability of Plant-Derived Cannabinoid Compounds in Powder Concentrate (300 days): 0.071 mg/g powder; Stability of Plant-Derived Cannabinoid Compounds in Powder Concentrate (330 days): 0.069 mg/g powder; Stability of Plant-Derived Cannabinoid Compounds in Powder Concentrate (360 days): 0.068 mg/g powder; Stability of Plant-Derived Cannabinoid Compounds in Powder Concentrate (390 days): 0.068 mg/g powder; Stability of Plant-Derived Cannabinoid Compounds in Powder Concentrate (420 days): 0.069 mg/g powder; Stability of Plant-Derived Cannabinoid Compounds in Powder Concentrate (450 days): 0.073 mg/g powder; Stability of Plant-Derived Cannabinoid Compounds in Powder Concentrate (480 days): 0.071 mg/g powder; Stability of Plant-Derived Cannabinoid Compounds in Powder Concentrate (510 days): 0.069 mg/g powder; Stability of Plant-Derived Cannabinoid Compounds in Powder Concentrate (540 days): 0.070 mg/g powder; Stability of Plant-Derived Cannabinoid Compounds in Powder Concentrate (570 days): 0.069 mg/g powder
